Measured values: article PMC12531613, “Synthesis and Biological Evaluation of Novel 2‐(Piperidin‐4‐yl)‐1,2,3,4‐tetrahydroisoquinoline and 2‐(Piperidin‐4‐yl)decahydroisoquinoline Antimycotics” (Archiv Der Pharmazie, 2025)
In brackets after ≈: the same amount, converted by molar mass. Like-named read-outs stand apart in the source and are kept apart here.

What was measured:
Type in all cases: cell-based
Yarrowia lipolytica = assay: MIC100 microdilution assay against Yarrowia lipolytica
Procedure: In previous research we found a good correlation between MIC values against Yarrowia lipolytica and pathogenic Candida species.
Determination of MICs against Yarrowia lipolytica (DSMZ, Braunschweig, Germany) was carried out according to lit. Yarrowia lipolytica was cultivated in AC‐agar (Sigma Aldrich). Concentration of yeast cells was determined by photometer and adjusted to a turbidity of 0.5 according to McFarland standard at 600 nm. All substances were dissolved in DMSO or methanol.
Determination of MICs (minimal inhibitory concentration) against Yarrowia lipolytica was carried out according to Lit.^[13] Concentration of yeast cells was determined by photometer and adjusted to a turbitity of 0.5 according to McFarland Standard.

A. fumigatus (R16) = assay: MIC90 growth inhibition of molds (EUCAST), A. fumigatus (R16); settings: Aspergillus fumigatus
Procedure: (§1) Determination of MICs (minimal inhibitory concentration) against Candida species was carried out according to the European Committee of Antifungal Susceptibility Testing. Concentration of yeast cells was determined by photometer and adjusted to a turbidity of 0.5 according to McFarland standard. MIC90 was determined by microdilution plate reader (Sunrise Tecan) at 450 nm, after 24 h incubation at 37°C. MIC90 was defined as the minimal concentration of chemical causing 90% growth inhibition, respectively. Growth inhibition of molds was determined by eye and microscopically, following EUCAST guidelines. All substances were dissolved in DMSO and diluted in RPMI 1640 medium, containing 2% glucose. All assays were carried out twice.

R. arrhizus (oryzae) = assay: MIC90 growth inhibition of molds (EUCAST), R. arrhizus (oryzae); settings: Rhizopus arrhizus
Procedure: as §1

C. glabrata = assay: MIC90 microdilution (EUCAST), C. glabrata; settings: Nakaseomyces glabratus, 24 h
Procedure: as §1

A. fumigatus (R7) = assay: MIC90 growth inhibition of molds (EUCAST), A. fumigatus (R7); settings: Aspergillus fumigatus
Procedure: as §1

R. microsporus = assay: MIC90 growth inhibition of molds (EUCAST), R. microsporus; settings: Rhizopus microsporus
Procedure: as §1

C. krusei = assay: MIC90 microdilution (EUCAST), C. krusei; settings: Pichia kudriavzevii, 24 h
Procedure: as §1

A. fumigatus (A65) = assay: MIC90 growth inhibition of molds (EUCAST), A. fumigatus (A65); settings: Aspergillus fumigatus, RPMI 1640, 2% glucose, read by eye and microscopically
Procedure: Determination of MICs (minimal inhibitory concentration) against Candida species was carried out according to the European Committee of Antifungal Susceptibility Testing. Concentration of yeast cells was determined by photometer and adjusted to a turbidity of 0.5 according to McFarland standard. […] Growth inhibition of molds was determined by eye and microscopically, following EUCAST guidelines. […] All assays were carried out twice.

C. albicans = assay: MIC90 microdilution (EUCAST), C. albicans; settings: Candida albicans, 24 h
Procedure: as §1

[1] = MTT cytotoxicity assay against HL 60 cells; settings: human, HL-60 cells (human leukemia cells); HL 60 cell line; MTT assay; read-out: IC50 cytotoxicity
Procedure: The cytotoxicity of the active compounds was checked in an MTT assay against human HL 60 cells. […] Although, this corresponds to the MIC range that would be needed in treatment, the values are within the range observed for commonly used antimycotics such as amorolfine and posaconazole. All active compounds were evaluated for their biopharmaceutical behavior and drug‐likeness using the online program SwissADME [26] and should show oral bioavailability according to the Lipinski rules of five.
HL‐60 cells (human leukemia cells, DSM No. ACC3) were obtained from DSMZ (German Collection of Microorganisms and Cell Cultures, Braunschweig, Germany) and cultivated in RPMI 1640 medium with 10% fetal bovine serum (FBS), both from PAA Laboratories, Cölbe, Germany) without the addition of antibiotics at 37°C in a humidified atmosphere containing 5% CO2. The assay was performed according to lit.

[2] = microdilution, 48 h, 25°C, 600 nm, read-out: MIC100
[3] = 48 h, read-out: Biological Activity MIC Yarrowia lipolytica

Clc1ccccc1C(c1ccccc1)(c1ccccc1)n1ccnc1 [Clotrimazole, reference compound]
MIC (Yarrowia lipolytica; [2]): 0.4 µg/mL | MIC (Yarrowia lipolytica; microdilution, same value given in µM, read-out: MIC100 (molar value in brackets)): 1.2 µM

COc1cc2c(cc1OC)CN(C1CCN(C(=O)OC(C)(C)C)CC1)CC2 [3b, tert‐Butyl 4‐(6,7‐dimethoxy‐3,4‐dihydroisoquinolin‐2(1H)‐yl)piperidine‐1‐carboxylate]
MIC (Yarrowia lipolytica; [3]): > 100 µg/mL | MIC (Yarrowia lipolytica; 48 h, read-out: MIC100): > 100 µg/mL

CC(C)(C)OC(=O)N1CCC(N2CCC3CCCCC3C2)CC1 (stereo not shown) [3c, tert‐Butyl 4‐(octahydroisoquinolin‐2(1H)‐yl)piperidine‐1‐carboxylate]
MIC (Yarrowia lipolytica; [3]): > 100 µg/mL | MIC (Yarrowia lipolytica; 48 h, read-out: MIC100): > 100 µg/mL

c1ccc(CN2CCC(N3CCc4ccccc4C3)CC2)cc1 [7a, 2‐(1‐Benzylpiperidin‐4‐yl)‐1,2,3,4‐tetrahydroisoquinoline]
MIC90 (A. fumigatus (R16)): > 32 µg/mL | MIC90 (R. arrhizus (oryzae)): > 32 µg/mL | MIC90 (C. glabrata): > 32 µg/mL | MIC90 (A. fumigatus (R7)): > 32 µg/mL | MIC90 (R. microsporus): > 32 µg/mL | MIC (Yarrowia lipolytica; [3]): > 100 µg/mL | MIC (Yarrowia lipolytica; 48 h, read-out: MIC100): > 100 µg/mL | MIC90 (C. krusei): > 32 µg/mL | MIC90 (A. fumigatus (A65)): > 32 µg/mL | MIC90 (C. albicans): > 32 µg/mL

CC[C@@H]([C@H](C)O)n1ncn(-c2ccc(N3CCN(c4ccc(OC[C@@H]5CO[C@@](Cn6cncn6)(c6ccc(F)cc6F)C5)cc4)CC3)cc2)c1=O [Posaconazole, reference compound]
IC50 [1]: 5 µg/mL (≈ 7.13 µM)

CCCCCCCC(=O)N1CCC(N2CCC3CCCCC3C2)CC1 (racemic) [5h, (±)‐1‐[4‐(Octahydroisoquinolin‐2(1H)‐yl)piperidin‐1‐yl]octan‐1‐one]
MIC (Yarrowia lipolytica; [3]): > 100 µg/mL | MIC (Yarrowia lipolytica; 48 h, read-out: MIC100): > 100 µg/mL

CCCC(=O)N1CCC(N2CCC3CCCCC3C2)CC1 (racemic) [5g, (±)‐1‐[4‐(Octahydroisoquinolin‐2(1H)‐yl)‐piperidin‐1‐yl]‐butan‐1‐one]
MIC (Yarrowia lipolytica; [3]): > 100 µg/mL | MIC (Yarrowia lipolytica; 48 h, read-out: MIC100): > 100 µg/mL

OC(Cn1cncn1)(Cn1cncn1)c1ccc(F)cc1F [FLZ, fluconazole, reference compound]
MIC90 (A. fumigatus (R16); A. fumigatus (R16), RPMI 1640, 2% glucose, read by eye and microscopically, read-out: MIC90): > 32 µg/mL | MIC90 (R. arrhizus (oryzae); R. arrhizus (oryzae), RPMI 1640, 2% glucose, read by eye and microscopically, read-out: MIC90): > 32 µg/mL | MIC90 (C. glabrata; C. glabrata, RPMI 1640, 2% glucose, 37°C, duplicate, read-out: MIC90): 16 µg/mL (≈ 52.2 µM) | MIC90 (A. fumigatus (R7); A. fumigatus (R7), RPMI 1640, 2% glucose, read by eye and microscopically, read-out: MIC90): 16 µg/mL (≈ 52.2 µM) | MIC90 (R. microsporus; R. microsporus, RPMI 1640, 2% glucose, read by eye and microscopically, read-out: MIC90): > 32 µg/mL | MIC90 (C. krusei; C. krusei, RPMI 1640, 2% glucose, 37°C, duplicate, read-out: MIC90): 8 µg/mL (≈ 26.1 µM) | MIC90 (A. fumigatus (A65)): 32 µg/mL (≈ 104 µM) | MIC90 (C. albicans; C. albicans, RPMI 1640, 2% glucose, 37°C, duplicate, read-out: MIC90): 0.25 µg/mL (≈ 0.816 µM)

CCC(C)(C)c1ccc(CC(C)CN2C[C@@H](C)O[C@@H](C)C2)cc1 (stereo partly shown) [Amorolfine, reference compound]
IC50 [1]: 17 µg/mL (≈ 53.5 µM)

CCCCCCCC(=O)N1CCC(N2CCc3ccccc3C2)CC1 [5b, 1‐[4‐(3,4‐Dihydroisoquinolin‐2(1H)‐yl)piperidin‐1‐yl]octan‐1‐one]
MIC (Yarrowia lipolytica; [3]): > 100 µg/mL | MIC (Yarrowia lipolytica; 48 h, read-out: MIC100): > 100 µg/mL

CCCCCCCCCCCC(=O)N1CCC(N2CCc3cc(OC)c(OC)cc3C2)CC1 [5f, 1‐[4‐(6,7‐Dimethoxy‐3,4‐dihydroisoquinolin‐2(1H)‐yl)piperidin‐1‐yl]dodecan‐1‐one]
MIC (Yarrowia lipolytica; [3]): > 100 µg/mL | MIC (Yarrowia lipolytica; 48 h, read-out: MIC100): > 100 µg/mL

CCCCCCCCN1CCC(N2CCC3CCCCC3C2)CC1 (racemic) [6h, (±)‐2‐(1‐Octylpiperidin‐4‐yl)decahydroisoquinoline]
MIC90 (A. fumigatus (R16)): > 32 µg/mL | MIC (R. arrhizus (oryzae); read-out: MIC90): 32 µg/mL (≈ 95.6 µM) | MIC90 (C. glabrata): > 32 µg/mL | IC50 [1]: 75 µg/mL (≈ 224 µM) | MIC90 (A. fumigatus (R7)): > 32 µg/mL | MIC90 (R. microsporus): > 32 µg/mL | MIC (Yarrowia lipolytica; [3]): 3.1 µg/mL | MIC (Yarrowia lipolytica; 48 h, read-out: MIC100): 3.1 µg/mL | MIC90 (C. krusei): 8 µg/mL (≈ 23.9 µM) | MIC90 (A. fumigatus (A65)): > 32 µg/mL | MIC90 (C. albicans): > 32 µg/mL

COc1cc2c(cc1OC)CN(C1CCN(Cc3ccccc3)CC1)CC2 [7b, 2‐(1‐Benzylpiperidin‐4‐yl)‐6,7‐dimethoxy‐1,2,3,4‐tetrahydroisoquinoline]
MIC90 (A. fumigatus (R16)): > 32 µg/mL | MIC90 (R. arrhizus (oryzae)): > 32 µg/mL | MIC90 (C. glabrata): > 32 µg/mL | MIC90 (A. fumigatus (R7)): > 32 µg/mL | MIC90 (R. microsporus): > 32 µg/mL | MIC (Yarrowia lipolytica; [3]): > 100 µg/mL | MIC (Yarrowia lipolytica; 48 h, read-out: MIC100): > 100 µg/mL | MIC90 (C. krusei): > 32 µg/mL | MIC90 (A. fumigatus (A65)): > 32 µg/mL | MIC90 (C. albicans): > 32 µg/mL

CCCCCCCC(=O)N1CCC(N2CCc3cc(OC)c(OC)cc3C2)CC1 [5e, 1‐[4‐(6,7‐Dimethoxy‐3,4‐dihydroisoquinolin‐2(1H)‐yl)‐piperidin‐1‐yl]‐octan‐1‐one]
MIC (Yarrowia lipolytica; [3]): > 100 µg/mL | MIC (Yarrowia lipolytica; 48 h, read-out: MIC100): > 100 µg/mL

CCCCN1CCC(N2CCc3cc(OC)c(OC)cc3C2)CC1 [6d, 2‐(1‐Butylpiperidin‐4‐yl)‐6,7‐dimethoxy‐1,2,3,4‐tetrahydroisoquinoline]
MIC90 (A. fumigatus (R16)): > 32 µg/mL | MIC90 (R. arrhizus (oryzae)): > 32 µg/mL | MIC90 (C. glabrata): > 32 µg/mL | IC50 [1]: > 100 µg/mL | MIC90 (A. fumigatus (R7)): > 32 µg/mL | MIC90 (R. microsporus): > 32 µg/mL | MIC (Yarrowia lipolytica; [3]): > 100 µg/mL | MIC (Yarrowia lipolytica; 48 h, read-out: MIC100): > 100 µg/mL | MIC90 (C. krusei): > 32 µg/mL | MIC90 (A. fumigatus (A65)): > 32 µg/mL | MIC90 (C. albicans): > 32 µg/mL

CCCC(=O)N1CCC(N2CCc3cc(OC)c(OC)cc3C2)CC1 [5d, 1‐[4‐(6,7‐Dimethoxy‐3,4‐dihydroisoquinolin‐2(1H)‐yl)‐piperidin‐1‐yl]butan‐1‐one]
MIC (Yarrowia lipolytica; [3]): > 100 µg/mL | MIC (Yarrowia lipolytica; 48 h, read-out: MIC100): > 100 µg/mL

CCCCCCCCCCCC(=O)N1CCC(N2CCC3CCCCC3C2)CC1 (racemic) [5i, (±)‐1‐[4‐(Octahydroisoquinolin‐2(1H)‐yl)‐piperidin‐1‐yl]‐dodecan‐1‐one]
MIC (Yarrowia lipolytica; [3]): > 100 µg/mL | MIC (Yarrowia lipolytica; 48 h, read-out: MIC100): > 100 µg/mL

CCCCCCCCN1CCC(N2CCc3ccccc3C2)CC1 [6b, 2‐(1‐Octylpiperidin‐4‐yl)‐1,2,3,4‐tetrahydroisoquinoline]
MIC (Yarrowia lipolytica; [3]): 100 µg/mL | MIC (Yarrowia lipolytica; 48 h, read-out: MIC100): 100 µg/mL

COc1cc2c(cc1OC)CN(C1CCNCC1)CC2 [4b, 6,7‐Dimethoxy‐2‐(piperidin‐4‐yl)‐1,2,3,4‐tetrahydroisoquinoline]
MIC (Yarrowia lipolytica; [3]): > 100 µg/mL | MIC (Yarrowia lipolytica; 48 h, read-out: MIC100): > 100 µg/mL

CC(C)(C)OC(=O)N1CCC(N2CCc3ccccc3C2)CC1 [3a, tert‐Butyl 4‐(3,4‐dihydroisoquinolin‐2(1H)‐yl)piperidine‐1‐carboxylate]
MIC (Yarrowia lipolytica; [3]): > 100 µg/mL | MIC (Yarrowia lipolytica; 48 h, read-out: MIC100): > 100 µg/mL

c1ccc(CN2CCC(N3CCC4CCCCC4C3)CC2)cc1 (stereo not shown) [7c, 2‐(1‐Benzylpiperidin‐4‐yl)decahydroisoquinoline]
MIC (Yarrowia lipolytica; [3]): > 100 µg/mL | MIC (Yarrowia lipolytica; 48 h, read-out: MIC100): > 100 µg/mL

C1CC[C@H]2CN(C3CCNCC3)CC[C@@H]2C1 (racemic) [4c, (±)‐2‐(Piperidin‐4‐yl)decahydroisoquinoline]
MIC (Yarrowia lipolytica; [2]): > 100 µg/mL | MIC (Yarrowia lipolytica; supplement table, MIC100, 48 h, 25°C, 600 nm, read-out: Biological Activity MIC Yarrowia lipolytica): > 100 µg/mL
